Data: US9718837B2, “Nitrogen-containing heterocyclic ring substituted dihydroartemisinin derivatives and use thereof” (Shenyang Pharmaceutical University, priority 2013, dated 2017)
Like-named read-outs stand apart in the source and are kept apart here.

Experiments:
[1] = test system: Human Breast Cancer Cells (MCF-7); assay: Cell growth inhibition by direct cell counting, MCF-7; type: cell-based; conditions: read-out: IG50 MCF-7
Protocol: (§1) Cells were taken out carefully from liquid nitrogen (Frozen pipes), and the cell freezing medium was thawed rapidly in water bath at 37° C. in order to rapidly pass through the temperature range of 0 to 5° C. within which the cell is easily damaged. Cell suspension was sucked with pipette gun and put it into centrifugal tubes under sterile condition, then was centrifuged for 3 min at 1300 r/min. The supernatant was gently discarded, and then added with a fresh medium to pipette and mix the cells. Finally, the cells were transferred into culture flasks, and cultured in a carbon dioxide incubator. The medium was changed once after 24 h.
(§2) After resuscitation, the cells were passed for 2-3 generations till they became stable, then they were used for the experiments. Each passage was based on the standard that all cells were spread over the bottoms of culture flasks.
(§3) Cell suspensions of a certain density (5×10^4 cells/mL) were plated at 24-well plate, 2 mL/well. Different concentration of drugs were added thereto, and incubated or some time. Then, cells were counted under the microscope. The ratio of total number of cells in test group to the total number of cells in control group is the cell growth inhibition rate under the concentration condition. The total number of cells in cell suspension, which were treated by drugs, could be counted by blood count board. Inhibition rate was calculated using the formula: […]
(§4) According to cell growth inhibition rate of each concentration of drugs, half inhibitory concentration could be calculated. (IG50 is the drug concentration, when cell growth inhibition rate was 50%.)
(§5) 7) The Results of the Growth Inhibitory Activity of the Compounds on Human Breast Cancer Cells (MCF-7) and Human Multidrug Resistant Breast Cancer Cells (MCF-7/Adr) were Listed in Table 3.

[2] = test system: Human Multidrug Resistant Breast Cancer Cells (MCF-7/Adr); assay: Cell growth inhibition by direct cell counting, MCF-7/Adr; type: cell-based; conditions: read-out: IG50 MCF-7/Adr
Protocol: as §1, §2, §3, §4, §5

[3] = MCF-7/Adr multidrug resistant cells

Row | Molecule | IC50 [1] | IC50 [2] | IC50 ([1]; MCF-7 cells) | IC50 [2, 3]
1 | C[C@H]1[C@@H](Oc2ccc(CC(=O)N3CCN(c4ccccc4)CC3)cc2)O[C@@H]2O[C@@]3(C)CC[C@H]4[C@H](C)CC[C@@H]1[C@@]24OO3 [Example 40, (10S)—O-{4-[2-(4-phenylpiperazin-1-yl)-2-oxoethyl]phenyl}-dihydroartemisinin] | 2660 nM | 79.1 nM | – | –
2 | CC1CCC2C(C)[C@@H](Oc3ccc(Cn4ccnn4)cc3)OC3OC4(C)CCC1C32OO4 (stereo partly drawn) [Example 3, (10S)—O-[4-((1,2,3-triazol-1-yl)methyl)phenyl]-dihydroartemisinin] | – | – | 1320 nM | 718 nM
3 | CC1CCC2C(C)[C@@H](Oc3ccc(CC(=O)NCc4ccccc4)cc3)OC3OC4(C)CCC1C32OO4 (stereo partly drawn) [Example 48, (10S)—O-[4-[2-(benzylamino)-2-oxoethyl]phenyl]-dihydroartemisinin] | – | – | 1400 nM | –
4 | CC1CCN(C(=O)Cc2ccc(O[C@H]3OC4OC5(C)CCC6C(C)CCC(C3C)C46OO5)cc2)CC1 (stereo partly drawn) [Example 36, (10S)—O-{4-[2-(4-methylpiperidin-1-yl)-2-oxoethyl]phenyl}-dihydroartemisinin] | – | – | 549 nM | 104 nM
5 | CC1CCC2C(C)[C@@H](Oc3ccc(CC(=O)N4CCN(C)CC4c4ccccc4)cc3)OC3OC4(C)CCC1C32OO4 (stereo partly drawn) [Example 43, (10S)—O-{4-[2-(4-methyl-2-phenylpiperazin-1-yl)-2-oxoethyl]phenyl}-dihydroartemisinin] | – | – | 2290 nM | 1060 nM
6 | CC1CCC2C(C)[C@@H](Oc3ccc(/C=C/C(=O)N4CCN(c5ccccn5)CC4)cc3)OC3OC4(C)CCC1C32OO4 (stereo partly drawn) [Example 30, (10S)—O-{4-[3-oxo-3-(4-(2-pyridyl)piperazin-1-yl)-1-(E)-propen-1-yl]phenyl}-dihydroartemisinin] | – | – | 263 nM | –
7 | C[C@H]1[C@@H](Oc2ccc(CC(=O)N3CCCCC3)cc2)O[C@@H]2O[C@@]3(C)CC[C@H]4[C@H](C)CC[C@@H]1[C@@]24OO3 [Example 35, (10S)—O-{4-[2-(piperidin-1-yl)-2-oxoethyl]phenyl}-dihydroartemisinin] | – | – | 1700 nM | 62.4 nM
8 | CC1CCC2C(C)[C@@H](Oc3ccc(/C=C/C(=O)N4CCN(Cc5ccccc5)CC4)cc3)OC3OC4(C)CCC1C32OO4 (stereo partly drawn) [Example 29, (10S)—O-{4-[3-oxo-3-(4-benzylpiperazin-1-yl)-1-(E)-propen-1-yl]phenyl}-dihydroartemisinin] | – | – | 15.6 nM | –
9 | CC1CCC2C(C)[C@@H](Oc3ccc(CC(=O)N4CCC(N5CCCCC5)CC4)cc3)OC3OC4(C)CCC1C32OO4 (stereo partly drawn) [Example 39, (10S)—O-{4-[2-[4-(piperidin-1-yl)piperidin-1-yl]-2-oxoethyl]phenyl}-dihydroartemisinin] | – | – | 1150 nM | 22.9 nM
10 | C[C@H]1[C@@H](Oc2ccc(CN3CCN(C)CC3)cc2)O[C@@H]2O[C@@]3(C)CC[C@H]4[C@H](C)CC[C@@H]1[C@@]24OO3 [Example 12, (10S)—O-[4-((4-methylpiperazin-1-yl)methyl)phenyl]-dihydroartemisinin] | – | – | 1050 nM | 190 nM
11 | CC1CCC2C(C)[C@@H](Oc3cccc(CN4CCN(Cc5ccccc5)CC4)c3)OC3OC4(C)CCC1C32OO4 (stereo partly shown) [Example 19] | – | – | 1190 nM | 1090 nM
12 | CC1CCC2C(C)[C@@H](Oc3ccc(CN4CCN(c5ncccn5)CC4)cc3)OC3OC4(C)CCC1C32OO4 (stereo partly drawn) [Example 15, 10-O-[4-[(4-(2-pyrimidinyl)piperazin-1-yl)methyl]phenyl]-(10S)-dihydroartemisinin] | – | – | 443 nM | 1660 nM
13 | CC1CCC2C(C)[C@@H](Oc3ccc(/C=C/C(=O)N4CCOCC4)cc3)OC3OC4(C)CCC1C32OO4 (stereo partly drawn) [Example 21, (10S)—O-{4-[3-oxo-3-(morpholin-4-yl)-1-(E)-propen-1-yl]phenyl}-dihydroartemisinin] | – | – | 241 nM | –
14 | C[C@H]1[C@@H](Oc2ccc(CN3CCN(c4ccc(F)cc4)CC3)cc2)O[C@@H]2O[C@@]3(C)CC[C@H]4[C@H](C)CC[C@@H]1[C@@]24OO3 [Example 13] | – | – | 267 nM | 330 nM
15 | COc1ccccc1N1CCN(C(=O)Cc2ccc(O[C@H]3OC4OC5(C)CCC6C(C)CCC(C3C)C46OO5)cc2)CC1 (stereo partly drawn) [Example 41, (10S)—O-{4-[2-[4-(2-methoxyphenyl)piperazin-1-yl]-2-oxoethyl]phenyl}-dihydroartemisinin] | – | – | 790 nM | 29.8 nM
16 | CC1CCC2C(C)[C@@H](Oc3ccc(C=CC(=O)Oc4ccc(/C=C/C(=O)N5CCN(c6ncccn6)CC5)cc4)cc3)OC3OC4(C)CCC1C32OO4 (stereo partly drawn) [Example 32, 4-[(10S)-dihydroartemisinin-10-O-yl]phenyl-acrylic acid-4-[3-oxo-3-(4-(2-pyrimidinyl)piperazin-1-yl)-1-(E)-propen-1-yl]phenyl ester] | – | – | 408 nM | –

Row | Molecule | IC50 [1] | IC50 [2] | IC50 ([1]; MCF-7 cells) | IC50 [2, 3]
17 | (10S)—O-{4-[2-[4-(pyrimidin-2-yl)piperazin-1-yl]-2-oxoethyl]phenyl}-dihydroartemisinin [Example 45] | – | – | 1490 nM | 110 nM
18 | CC1CCC2C(C)[C@@H](Oc3ccc(/C=C/C(=O)N4CCN(c5cccc(C(F)(F)F)c5)CC4)cc3)OC3OC4(C)CCC1C32OO4 (stereo partly drawn) [Example 28, (10S)—O-{4-[3-oxo-3-(4-(3-trifluoromethylphenyl)piperazin-1-yl)-1-(E)-propen-1-yl]phenyl}-dihydroartemisinin] | – | – | 91.1 nM | –
19 | (10S)—O-{4-[2-[4-(pyridin-2-yl)piperazin-1-yl]-2-oxoethyl]phenyl}-dihydroartemisinin [Example 44] | 1490 nM | 180 nM | – | –
20 | C[C@H]1[C@@H](Oc2cccc(CN3CCN(c4ccccc4)CC3)c2)O[C@@H]2O[C@@]3(C)CC[C@H]4[C@H](C)CC[C@@H]1[C@@]24OO3 [Example 18, 10-O-[3-[(4-phenylpiperazin-1-yl)methyl]phenyl]-(10S)-dihydroartemisinin] | – | – | 690 nM | 355 nM
21 | C[C@H]1[C@@H](Oc2ccc(CN3CCN(c4ccccn4)CC3)cc2)O[C@@H]2O[C@@]3(C)CC[C@H]4[C@H](C)CC[C@@H]1[C@@]24OO3 [Example 14, 10-O-[4-[(4-(2-pyridyl)piperazin-1-yl)methyl]phenyl]-(10S)-dihydroartemisinin] | – | – | 1280 nM | 1380 nM
22 | CC1CCC2C(C)[C@@H](Oc3ccc(CC(=O)N4CCOCC4)cc3)OC3OC4(C)CCC1C32OO4 (stereo partly drawn) [Example 34, (10S)—O-{4-[2-(morpholin-4-yl)-2-oxoethyl]phenyl}-dihydroartemisinin] | – | – | 7580 nM | 239 nM
23 | C[C@H]1[C@@H](Oc2ccc(/C=C/C(=O)N3CCC(N4CCCCC4)CC3)cc2)O[C@@H]2O[C@@]3(C)CC[C@H]4[C@H](C)CC[C@@H]1[C@@]24OO3 [Example 23] | – | – | 586 nM | –
24 | C[C@H]1[C@@H](Oc2ccc(Cn3cncn3)cc2)O[C@@H]2O[C@@]3(C)CC[C@H]4[C@H](C)CC[C@@H]1[C@@]24OO3 [Example 4, (10S)—O-[4-((1,2,4-triazol-1-yl)methyl)phenyl]-dihydroartemisinin] | – | – | 1620 nM | 476 nM
25 | COc1ccccc1N1CCN(Cc2ccc(O[C@H]3O[C@@H]4O[C@@]5(C)CC[C@H]6[C@H](C)CC[C@@H]([C@H]3C)[C@@]46OO5)cc2)CC1 [Example 11, (10)-O-[4-[(4-(2-methoxyphenyl)piperazin-1-yl)methyl]phenyl](10S)-dihydroartemisinin] | – | – | 475 nM | 456 nM
26 | CC1CCC2C(C)[C@@H](Oc3ccc(CC(=O)N4CCN(c5ccc(F)cc5)CC4)cc3)OC3OC4(C)CCC1C32OO4 (stereo partly drawn) [Example 42, (10S)—O-{4-[2-[4-(4-fluorophenyl)piperazin-1-yl]-2-oxoethyl]phenyl}-dihydroartemisinin] | – | – | 1090 nM | 11.2 nM
27 | CC1CCC2C(C)[C@@H](Oc3ccc(CC(=O)N4CCN(C5CCCCC5)CC4)cc3)OC3OC4(C)CCC1C32OO4 (stereo partly drawn) [Example 46, (10S)—O-{4-[2-(4-cyclohexylpiperazin-1-yl)-2-oxoethyl]phenyl}-dihydroartemisinin] | – | – | 1120 nM | 98 nM
28 | CC1CC(C)CN(C(=O)Cc2ccc(O[C@H]3O[C@@H]4O[C@@]5(C)CC[C@H]6[C@H](C)CC[C@@H]([C@H]3C)[C@@]46OO5)cc2)C1 (stereo partly drawn) [Example 38, (10S)—O-{4-[2-(3,5-dimethylpiperidin-1-yl)-2-oxoethyl]phenyl}-dihydroartemisinin] | – | – | 516 nM | 360 nM
29 | COc1ccccc1N1CCN(C(=O)/C=C/c2ccc(O[C@H]3O[C@@H]4O[C@@]5(C)CC[C@H]6[C@H](C)CC[C@@H]([C@H]3C)[C@@]46OO5)cc2)CC1 [Example 27, (10S)—O-{4-[3-oxo-3-(4-(2-methoxyphenyl)piperazin-1-yl)-1-(E)-propen-1-yl]phenyl}-dihydroartemisinin] | – | – | 322 nM | –
30 | CC1CCCCN1C(=O)Cc1ccc(O[C@H]2O[C@@H]3O[C@@]4(C)CC[C@H]5[C@H](C)CC[C@@H]([C@H]2C)[C@@]35OO4)cc1 (stereo partly drawn) [Example 37, (10S)—O-{4-[2-(2-methylpiperidin-1-yl)-2-oxoethyl]phenyl}-dihydroartemisinin] | 1250 nM | – | – | –
31 | CC1CCC2C(C)[C@@H](Oc3ccc(/C=C/C(=O)N4CCCCC4)cc3)OC3OC4(C)CCC1C32OO4 (stereo partly drawn) [Example 22, (10S)—O-{4-[3-oxo-3-(piperidin-1-yl)-1-(E)-propen-1-yl]phenyl}-dihydroartemisinin] | – | – | 6.07 nM | –
